According to the supplement of paper PMC13380429:

Experiments:
Conditions in all cases: 72 h
[1] = test system: Caco-2; test: cell viability relative to DMSO; higher = less toxic
[2] = test system: Calu-3; test: as above
[3] = test system: HepG2; test: as above
[4] = test system: U2OS; test: as above
[5] = test system: Vero E6; test: as above
[6] = test system: Caco-2; test: relative viability EC50 (midpoint between 100% and the lowest measured viability); higher = less toxic
[7] = test system: Calu-3; test: as above
[8] = test system: HepG2; test: as above
[9] = test system: U2OS; test: as above
[10] = test system: Vero E6; test: as above
[11] = test system: Caco-2; test: drug sensitivity score (DSS) for viability; higher = more toxic; extreme values may be limits of the assay
[12] = test system: Calu-3; test: as above
[13] = test system: HepG2; test: as above
[14] = test system: U2OS; test: as above
[15] = test system: Vero E6; test: as above

O=c1[nH]c2cc(C(F)(F)F)c(N3CCOCC3)cc2n(CP(=O)(O)O)c1=O
cell viability ([1]; 1 nM): 102%
cell viability ([1]; 10 nM): 92.8%
cell viability ([1]; 100 nM): 98.5%
cell viability ([1]; 1000 nM): 106%
cell viability ([1]; 10000 nM): 93.9%
cell viability ([2]; 1 nM): 108%
cell viability ([2]; 10 nM): 106%
cell viability ([2]; 100 nM): 98%
cell viability ([2]; 1000 nM): 99.7%
cell viability ([2]; 10000 nM): 109%
cell viability ([3]; 1 nM): 95.4%
cell viability ([3]; 10 nM): 104%
cell viability ([3]; 100 nM): 107%
cell viability ([3]; 1000 nM): 90.5%
cell viability ([3]; 10000 nM): 99.1%
cell viability ([4]; 1 nM): 97.3%
cell viability ([4]; 10 nM): 102%
cell viability ([4]; 100 nM): 103%
cell viability ([4]; 1000 nM): 104%
cell viability ([4]; 10000 nM): 99.7%
cell viability ([5]; 1 nM): 105%
cell viability ([5]; 10 nM): 99.8%
cell viability ([5]; 100 nM): 99.6%
cell viability ([5]; 1000 nM): 102%
cell viability ([5]; 10000 nM): 101%
relative viability EC50 [6]: > 10 µM
relative viability EC50 [7]: > 10 µM
relative viability EC50 [8]: > 10 µM
relative viability EC50 [9]: > 10 µM
relative viability EC50 [10]: > 10 µM
drug sensitivity score [11]: 0
drug sensitivity score [12]: 0
drug sensitivity score [13]: 0
drug sensitivity score [14]: 0
drug sensitivity score [15]: 0

Cc1nnc(C(C)C)n1C1C[C@H]2CC[C@@H](C1)N2CC[C@H](NC(=O)C1CCC(F)(F)CC1)c1ccccc1 (stereo in doubt) [maraviroc]
cell viability ([1]; 1 nM): 101%
cell viability ([1]; 10 nM): 93.8%
cell viability ([1]; 100 nM): 99.5%
cell viability ([1]; 1000 nM): 97.9%
cell viability ([1]; 10000 nM): 108%
cell viability ([2]; 1 nM): 107%
cell viability ([2]; 10 nM): 89.8%
cell viability ([2]; 100 nM): 101%
cell viability ([2]; 1000 nM): 108%
cell viability ([2]; 10000 nM): 114%
cell viability ([3]; 1 nM): 114%
cell viability ([3]; 10 nM): 97.3%
cell viability ([3]; 100 nM): 94.4%
cell viability ([3]; 1000 nM): 86.5%
cell viability ([3]; 10000 nM): 101%
cell viability ([4]; 1 nM): 99.4%
cell viability ([4]; 10 nM): 95.1%
cell viability ([4]; 100 nM): 100%
cell viability ([4]; 1000 nM): 99.7%
cell viability ([4]; 10000 nM): 106%
cell viability ([5]; 1 nM): 97.4%
cell viability ([5]; 10 nM): 97.8%
cell viability ([5]; 100 nM): 97.1%
cell viability ([5]; 1000 nM): 92.3%
cell viability ([5]; 10000 nM): 104%
relative viability EC50 [6]: > 10 µM
relative viability EC50 [7]: > 10 µM
relative viability EC50 [8]: > 10 µM
relative viability EC50 [9]: > 10 µM
relative viability EC50 [10]: > 10 µM
drug sensitivity score [11]: 0
drug sensitivity score [12]: 0
drug sensitivity score [13]: 0
drug sensitivity score [14]: 0
drug sensitivity score [15]: 0

CCn1c(=O)[nH]c2ccccc21 [1-EBIO]
cell viability ([1]; 1 nM): 94.4%
cell viability ([1]; 10 nM): 93.5%
cell viability ([1]; 100 nM): 98%
cell viability ([1]; 1000 nM): 100%
cell viability ([1]; 10000 nM): 91%
cell viability ([2]; 1 nM): 99.1%
cell viability ([2]; 10 nM): 105%
cell viability ([2]; 100 nM): 104%
cell viability ([2]; 1000 nM): 106%
cell viability ([2]; 10000 nM): 81.8%
cell viability ([3]; 1 nM): 96.7%
cell viability ([3]; 10 nM): 98.6%
cell viability ([3]; 100 nM): 91.4%
cell viability ([3]; 1000 nM): 84%
cell viability ([3]; 10000 nM): 110%
cell viability ([4]; 1 nM): 95.7%
cell viability ([4]; 10 nM): 94.3%
cell viability ([4]; 100 nM): 104%
cell viability ([4]; 1000 nM): 98.4%
cell viability ([4]; 10000 nM): 93.2%
cell viability ([5]; 1 nM): 97.4%
cell viability ([5]; 10 nM): 97.5%
cell viability ([5]; 100 nM): 89.7%
cell viability ([5]; 1000 nM): 98.2%
cell viability ([5]; 10000 nM): 104%
relative viability EC50 [6]: > 10 µM
relative viability EC50 [7]: > 10 µM
relative viability EC50 [8]: > 10 µM
relative viability EC50 [9]: > 10 µM
relative viability EC50 [10]: > 10 µM
drug sensitivity score [11]: 0
drug sensitivity score [12]: 0.3
drug sensitivity score [13]: 0
drug sensitivity score [14]: 0
drug sensitivity score [15]: 0

c1ccc2oc(C3=NCCN3)cc2c1 [2-BFI]
cell viability ([1]; 1 nM): 102%
cell viability ([1]; 10 nM): 96.2%
cell viability ([1]; 100 nM): 97.7%
cell viability ([1]; 1000 nM): 93.6%
cell viability ([1]; 10000 nM): 112%
cell viability ([2]; 1 nM): 95.9%
cell viability ([2]; 10 nM): 99.7%
cell viability ([2]; 100 nM): 102%
cell viability ([2]; 1000 nM): 100%
cell viability ([2]; 10000 nM): 95.7%
cell viability ([3]; 1 nM): 97.9%
cell viability ([3]; 10 nM): 98.3%
cell viability ([3]; 100 nM): 87.5%
cell viability ([3]; 1000 nM): 98%
cell viability ([3]; 10000 nM): 100%
cell viability ([4]; 1 nM): 100%
cell viability ([4]; 10 nM): 96.7%
cell viability ([4]; 100 nM): 99.7%
cell viability ([4]; 1000 nM): 99.9%
cell viability ([4]; 10000 nM): 97.7%
cell viability ([5]; 1 nM): 93.8%
cell viability ([5]; 10 nM): 100%
cell viability ([5]; 100 nM): 90.5%
cell viability ([5]; 1000 nM): 94.4%
cell viability ([5]; 10000 nM): 107%
relative viability EC50 [6]: > 10 µM
relative viability EC50 [7]: > 10 µM
relative viability EC50 [8]: > 10 µM
relative viability EC50 [9]: > 10 µM
relative viability EC50 [10]: > 10 µM
drug sensitivity score [11]: 0
drug sensitivity score [12]: 0
drug sensitivity score [13]: 0
drug sensitivity score [14]: 0
drug sensitivity score [15]: 0

CCCC(O)C(CC)CO (stereo not given) [2-ethyl-1,3-hexanediol]
cell viability ([1]; 1 nM): 106%
cell viability ([1]; 10 nM): 88.9%
cell viability ([1]; 100 nM): 101%
cell viability ([1]; 1000 nM): 93.9%
cell viability ([1]; 10000 nM): 93.3%
cell viability ([2]; 1 nM): 105%
cell viability ([2]; 10 nM): 101%
cell viability ([2]; 100 nM): 102%
cell viability ([2]; 1000 nM): 94.6%
cell viability ([2]; 10000 nM): 103%
cell viability ([3]; 1 nM): 78.7%
cell viability ([3]; 10 nM): 105%
cell viability ([3]; 100 nM): 98.8%
cell viability ([3]; 1000 nM): 81.1%
cell viability ([3]; 10000 nM): 101%
cell viability ([4]; 1 nM): 102%
cell viability ([4]; 10 nM): 99.1%
cell viability ([4]; 100 nM): 95.9%
cell viability ([4]; 1000 nM): 97.8%
cell viability ([4]; 10000 nM): 102%
cell viability ([5]; 1 nM): 95.5%
cell viability ([5]; 10 nM): 102%
cell viability ([5]; 100 nM): 101%
cell viability ([5]; 1000 nM): 104%
cell viability ([5]; 10000 nM): 75.5%
relative viability EC50 [6]: > 10 µM
relative viability EC50 [7]: > 10 µM
relative viability EC50 [8]: > 10 µM
relative viability EC50 [9]: > 10 µM
relative viability EC50 [10]: > 10 µM
drug sensitivity score [11]: 0
drug sensitivity score [12]: 0
drug sensitivity score [13]: 0
drug sensitivity score [14]: 0
drug sensitivity score [15]: 0.7

COc1ccccc1N1CCN(CCn2c(=O)[nH]c3c([nH]c4ccccc43)c2=O)CC1 [3-MPPI]
cell viability ([1]; 1 nM): 96%
cell viability ([1]; 10 nM): 93.8%
cell viability ([1]; 100 nM): 99.4%
cell viability ([1]; 1000 nM): 96.1%
cell viability ([1]; 10000 nM): 103%
cell viability ([2]; 1 nM): 99.6%
cell viability ([2]; 10 nM): 105%
cell viability ([2]; 100 nM): 104%
cell viability ([2]; 1000 nM): 98.8%
cell viability ([2]; 10000 nM): 106%
cell viability ([3]; 1 nM): 102%
cell viability ([3]; 10 nM): 111%
cell viability ([3]; 100 nM): 106%
cell viability ([3]; 1000 nM): 102%
cell viability ([3]; 10000 nM): 92.2%
cell viability ([4]; 1 nM): 103%
cell viability ([4]; 10 nM): 98%
cell viability ([4]; 100 nM): 102%
cell viability ([4]; 1000 nM): 99.4%
cell viability ([4]; 10000 nM): 101%
cell viability ([5]; 1 nM): 104%
cell viability ([5]; 10 nM): 104%
cell viability ([5]; 100 nM): 102%
cell viability ([5]; 1000 nM): 99.4%
cell viability ([5]; 10000 nM): 103%
relative viability EC50 [6]: > 10 µM
relative viability EC50 [7]: > 10 µM
relative viability EC50 [8]: > 10 µM
relative viability EC50 [9]: > 10 µM
relative viability EC50 [10]: > 10 µM
drug sensitivity score [11]: 0
drug sensitivity score [12]: 0
drug sensitivity score [13]: 0
drug sensitivity score [14]: 0
drug sensitivity score [15]: 0

COc1ccc(-c2coc3cc(O)cc(O)c3c2=O)cc1 [4-methylgenistein]
cell viability ([1]; 1 nM): 98.7%
cell viability ([1]; 10 nM): 98.1%
cell viability ([1]; 100 nM): 105%
cell viability ([1]; 1000 nM): 104%
cell viability ([1]; 10000 nM): 96%
cell viability ([2]; 1 nM): 113%
cell viability ([2]; 10 nM): 99%
cell viability ([2]; 100 nM): 101%
cell viability ([2]; 1000 nM): 106%
cell viability ([2]; 10000 nM): 91%
cell viability ([3]; 1 nM): 106%
cell viability ([3]; 10 nM): 109%
cell viability ([3]; 100 nM): 102%
cell viability ([3]; 1000 nM): 92.6%
cell viability ([3]; 10000 nM): 95.2%
cell viability ([4]; 1 nM): 99.3%
cell viability ([4]; 10 nM): 94.1%
cell viability ([4]; 100 nM): 99.3%
cell viability ([4]; 1000 nM): 98.8%
cell viability ([4]; 10000 nM): 97.1%
cell viability ([5]; 1 nM): 94%
cell viability ([5]; 10 nM): 95%
cell viability ([5]; 100 nM): 101%
cell viability ([5]; 1000 nM): 88.5%
cell viability ([5]; 10000 nM): 102%
relative viability EC50 [6]: > 10 µM
relative viability EC50 [7]: > 10 µM
relative viability EC50 [8]: > 10 µM
relative viability EC50 [9]: > 10 µM
relative viability EC50 [10]: > 10 µM
drug sensitivity score [11]: 0
drug sensitivity score [12]: 0
drug sensitivity score [13]: 0
drug sensitivity score [14]: 0
drug sensitivity score [15]: 0
